Series [1] can be described thus: In vitro stability in human serum (LC/MS/MS). To be noted: human.
Protocol: Test compound is added to 1.5 mL human serum in a 96-wells deepwell plate in a final concentration of 750 nM. The compound is mixed and immediately thereafter a 100 μl sample is harvested in a 96-wells 2D-tuberack (T=0 sample). The 2 D-tubes are closed with rubber tube caps and the sample plate is stored at −20° CF. in the freezer. The deepwell plate is put into an incubator which was set at humidified (95%) atmosphere at 5-7% CO2 and 37° C. for an incubation period of maximum 240 h. During this incubation period, samples of 100 μl are collected on various time intervals, dependent on the test compound used; time points 0, 1, 2, 3, 6, 24, 48, 72 h in case of Kisspeptides and 0, 3, 6, 24, 48, 72, 168, 240 h in case of kisspeptide-pentasaccharide conjugates. Sample plates are put on ice in case of sampling and stored at −20° C. until analysis by LC/MS/MS.
For LC-MS/MS analysis, the compounds are separated over an XTerra RP8 column and using a gradient mobile phase of ammonium acetate buffer and acetonitrile at a fixed column temperature. MS/MS detection is done with a triple quadrupole mass spectrometer and employing negative ion electrospray ionization. The mass spectrometer is set up to achieve a known degree of in source fragmentation, where the initially formed multiply charged negative ions lose one or more SO3 molecules. The most abundant of these secondary ions are then subjected to a common MS/MS experiment in which a single SO3 loss is monitored. The Q1 and Q3 mass filter settings for this MS/MS experiment have commonly been determined in method development. […] Internal standardization is accomplished by adding a different conjugate of approximately the same size to the bioanalytical samples.
The rate of compound loss is expressed as a half-life (plasma t^1/2). The t^1/2 for the test compound can be determined by plotting the natural logarithm (In) of the measured concentrations against time and fitting the line through all data points. The gradient of this line is the first order rate constant (k) for substrate disappearance and is determined by regression analysis. The rate constant is converted to a half-life according to the following equation: In vitro half-life(t^1/2)=−ln 2/k
In the next series the target is T1, human KISS-receptor (Homo sapiens, UniProt Q969F8).
T1 construct: expressed in transfected cells; host or cells: CHO-k1 cells that also express mitochondrially targeted aequorin, Gα16 and an NFAT-luciferase reporter
The experiment in a line: NFAT-regulated luciferase reporter gene assay in CHO-k1 cells, agonist activity. Type of series: cell-based. Background: In a reporter assay the amount or activity of a reporter protein is the signal.

The mark [2] stands for this setting: pEC50 serum, presence of 20% human serum.
[3] abbreviates: absence of human serum, read-out: pEC50 (converted).
Setting [4] is: presence of 20% human serum, read-out: pEC50 serum (converted).

Each structure is given as a SMILES string. Like-named read-outs stand apart in the source and are kept apart here.

T1 sequence (Q969F8 whole entry): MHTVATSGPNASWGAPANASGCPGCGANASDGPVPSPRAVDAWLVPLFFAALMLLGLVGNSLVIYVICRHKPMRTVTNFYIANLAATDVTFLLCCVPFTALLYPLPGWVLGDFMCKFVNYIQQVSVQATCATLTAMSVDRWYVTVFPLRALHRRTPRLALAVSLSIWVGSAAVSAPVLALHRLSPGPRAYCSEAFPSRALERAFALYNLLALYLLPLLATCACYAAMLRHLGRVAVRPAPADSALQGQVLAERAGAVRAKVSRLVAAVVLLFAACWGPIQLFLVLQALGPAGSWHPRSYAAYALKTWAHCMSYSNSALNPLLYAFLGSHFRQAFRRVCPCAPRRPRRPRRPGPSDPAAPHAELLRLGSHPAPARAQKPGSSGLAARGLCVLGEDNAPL
Protocol for human KISS-receptor: CHO-k1 cells were used that expressed the mitochondrially targeted aequorine and Gα16 (from Euroscreen, Brussels, Belgium), a Nuclear Factor of Activated T-cells-responsive element (NFAT) under the control of a promoter directing the expression of a firefly luciferase reporter gene (pNFAT-TALuc obtained from Clontech, Mountain View, Calif.), and the human GPR54-R Hygro(+)-hGPR54WT c4; MSD). These cells were cultured in Dulbecco's Modified Eagle Medium: Nutrient Mixture F-12 (DMEM/F12) (Invitrogen, Carlsbad, Calif.), supplemented with 10% (vol/vol) filtered bovine serum (Hyclone, Thermo Fisher Scientific, Waltham, Mass.), 100 U/ml penicillin G, 100 μg/ml streptomycin, 400 μg/ml Geneticin and 400 μg/ml Hygromycin (Invitrogen). […] Kisspeptin-10 was used as a standard. […] When the conjugates were tested in the presence of a final percentage of 20% human serum, 10 μl assay medium containing 60% human serum (Sigma-Aldrich, #H4522) was added to the wells. In the absence of human serum, 10 μl of assay medium was added. Cells were harvested and diluted to a concentration of 7.5E5 cells/ml in assay medium without 0.1% BSA. 10 μl of cell solution was added to the compound wells. After incubation for 4 hours in a humidified atmosphere at 5% CO2 and 37° C., the plate was left at room temperature for 30 minutes. Subsequently, 15 μl of Steadylite™ solution (PerkinElmer, Boston, Mass.) was added and the cells, protected from light, were allowed to lyse for 30 min at room temperature. Luminescence, indicated as relative luminescence units (RLU), was measured on an Envision Multilabel reader (PerkinElmer).

In general, half-life refers to the time needed for the level to fall by half in the phase considered. A higher half-life goes with slow decline. `CNC(=N)NCCC[C@H](NC(=O)[C@H](CC(C)C)NC(=O)NNC(=O)[C@H](Cc1ccccc1)NC(=O)[C@@H](NC(=O)[C@H](CC(N)=O)NC(=O)[C@H](Cc1c[nH]c2ccccc12)NC(=O)[C@H](CC(N)=O)NC(=O)[C@@H](Cc1ccc(O)cc1)NC(=O)CCOCCOCCOCCOCCn1cc(CCC(=O)NCCOCCOCCOCCO[C@H]2[C@H](OC)[C@@H](OC)[C@@H](O[C@H]3[C@H](OC)[C@@H](OC)[C@H](O[C@H]4[C@H](OS(=O)(=O)O)[C@@H](OS(=O)(=O)O)[C@@H](O[C@H]5[C@H](OC)[C@@H](OC)[C@H](O[C@H]6[C@H](OS(=O)(=O)O)[C@@H](OS(=O)(=O)O)[C@@H](OC)O[C@@H]6COS(=O)(=O)O)O[C@H]5C(=O)O)O[C@@H]4COS(=O)(=O)O)O[C@@H]3C(=O)O)O[C@@H]2COS(=O)(=O)O)nn1)C(C)O)C(=O)N[C@@H](Cc1ccccc1)C(N)=O` (stereo partly drawn) [Conjugate C11] registered a half-life at 750 nM in series [1] greater than 240 h.
Take `CNC(=N)NCCC[C@H](NC(=O)[C@H](CC(C)C)NC(=O)CNC(=O)[C@H](Cc1ccccc1)NC(=O)[C@@H](NC(=O)[C@H](CC(N)=O)NC(=O)[C@H](CCCCNC(=O)CCOCCOCCOCCOCCn1cc(CCC(=O)NCCOCCOCCOCCO[C@H]2[C@H](OC)[C@@H](OC)[C@@H](O[C@H]3[C@H](OC)[C@@H](OC)[C@H](O[C@H]4[C@H](OS(=O)(=O)O)[C@@H](OS(=O)(=O)O)[C@@H](O[C@H]5[C@H](OC)[C@@H](OC)[C@H](O[C@H]6[C@H](OS(=O)(=O)O)[C@@H](OS(=O)(=O)O)[C@@H](OC)O[C@@H]6COS(=O)(=O)O)O[C@H]5C(=O)O)O[C@@H]4COS(=O)(=O)O)O[C@@H]3C(=O)O)O[C@@H]2COS(=O)(=O)O)nn1)NC(=O)[C@H](CC(N)=O)NC(=O)[C@@H](N)Cc1ccc(O)cc1)[C@@H](C)O)C(=O)N[C@@H](Cc1ccccc1)C(N)=O` [Conjugate C28]: the EC50 was 0.141 nM at human KISS-receptor (pEC50, absence of human serum) and 4.27 nM on human KISS-receptor (setting [2]).
Take `CNC(=N)NCCC[C@H](NC(=O)[C@H](CC(C)C)NC(=O)CNC(=O)[C@H](Cc1ccccc1)NC(=O)[C@@H](NC(=O)[C@H](CC(N)=O)NC(=O)[C@H](Cc1ccccc1)NC(=O)[C@H](CC(N)=O)NC(=O)[C@H](Cc1ccc(O)cc1)NC(=O)CCCCn1cc(CCC(=O)NCCOCCOCCOCCO[C@H]2[C@H](OC)[C@@H](OC)[C@@H](O[C@H]3[C@H](OC)[C@@H](OC)[C@H](O[C@H]4[C@H](OS(=O)(=O)O)[C@@H](OS(=O)(=O)O)[C@@H](O[C@H]5[C@H](OC)[C@@H](OC)[C@H](O[C@H]6[C@H](OS(=O)(=O)O)[C@@H](OS(=O)(=O)O)[C@@H](OC)O[C@@H]6COS(=O)(=O)O)O[C@H]5C(=O)O)O[C@@H]4COS(=O)(=O)O)O[C@@H]3C(=O)O)O[C@@H]2COS(=O)(=O)O)nn1)[C@@H](C)O)C(=O)N[C@@H](Cc1ccccc1)C(N)=O` [Conjugate C29]: the EC50 was 0.407 nM at human KISS-receptor (setting [3]) and 8.13 nM on human KISS-receptor (setting [4]).
For the compound `CNC(=N)NCCC[C@H](NC(=O)[C@H](CC(C)C)NC(=O)NNC(=O)[C@H](Cc1ccccc1)NC(=O)[C@@H](NC(=O)[C@H](CC(N)=O)NC(=O)[C@@H]1C[C@@H](O)CN1C(=O)[C@@H](Cc1ccc(O)cc1)NC(=O)CCCCn1cc(CCC(=O)NCCOCCOCCOCCO[C@H]2[C@H](OC)[C@@H](OC)[C@@H](O[C@H]3[C@H](OC)[C@@H](OC)[C@H](O[C@H]4[C@H](OS(=O)(=O)O)[C@@H](OS(=O)(=O)O)[C@@H](O[C@H]5[C@H](OC)[C@@H](OC)[C@H](O[C@H]6[C@H](OC)[C@@H](OS(=O)(=O)O)[C@@H](OC)O[C@@H]6COS(=O)(=O)O)O[C@H]5C(=O)O)O[C@@H]4COS(=O)(=O)O)O[C@@H]3C(=O)O)O[C@@H]2COS(=O)(=O)O)nn1)[C@@H](C)O)C(=O)N[C@@H](Cc1c[nH]c2ccccc12)C(N)=O` [Conjugate C30], the EC50 was 0.0479 nM on human KISS-receptor (pEC50, absence of human serum) and 0.195 nM at human KISS-receptor (setting [2]).
Turning to `CNC(=N)NCCC[C@H](NC(=O)[C@H](CC(C)C)NC(=O)NNC(=O)[C@H](Cc1ccccc1)NC(=O)[C@@H](NC(=O)[C@H](CC(N)=O)NC(=O)[C@@H]1C[C@@H](O)CN1C(=O)[C@@H](Cc1ccc(O)cc1)NC(=O)CCOCCOCCOCCOCCn1cc(CCC(=O)NCCOCCOCCOCCOCC(=O)NCCOCCOCCOCCO[C@H]2[C@H](OC)[C@@H](OC)[C@@H](O[C@H]3[C@H](OC)[C@@H](OC)[C@H](O[C@H]4[C@H](OS(=O)(=O)O)[C@@H](OS(=O)(=O)O)[C@@H](O[C@H]5[C@H](OC)[C@@H](OC)[C@H](O[C@H]6[C@H](OC)[C@@H](OS(=O)(=O)O)[C@@H](OC)O[C@@H]6COS(=O)(=O)O)O[C@H]5C(=O)O)O[C@@H]4COS(=O)(=O)O)O[C@@H]3C(=O)O)O[C@@H]2COS(=O)(=O)O)nn1)[C@@H](C)O)C(=O)N[C@@H](Cc1c[nH]c2ccccc12)C(N)=O` [Conjugate C32], the EC50 on human KISS-receptor (setting [3]) was 0.151 nM; at human KISS-receptor (setting [4]), 0.355 nM.
As to `CNC(=N)NCCC[C@H](NC(=O)[C@H](CC(C)C)NC(=O)NNC(=O)[C@H](Cc1ccccc1)NC(=O)[C@@H](NC(=O)[C@H](CC(N)=O)NC(=O)[C@@H]1C[C@@H](O)CN1C(=O)[C@@H](Cc1ccc(O)cc1)NC(=O)CCOCCOCCOCCOCCn1cc(CCC(=O)NCCOCCOCCOCCOCC(=O)NCCOCCOCCOCCO[C@H]2[C@H](OC)[C@@H](OC)[C@@H](O[C@H]3[C@H](OC)[C@@H](OC)[C@H](O[C@H]4[C@H](OS(=O)(=O)O)[C@@H](OS(=O)(=O)O)[C@@H](O[C@H]5[C@H](OC)[C@@H](OC)[C@H](O[C@H]6[C@H](OS(=O)(=O)O)[C@@H](OS(=O)(=O)O)[C@@H](OC)O[C@@H]6COS(=O)(=O)O)O[C@H]5C(=O)O)O[C@@H]4COS(=O)(=O)O)O[C@@H]3C(=O)O)O[C@@H]2COS(=O)(=O)O)nn1)[C@@H](C)O)C(=O)N[C@@H](Cc1c[nH]c2ccccc12)C(N)=O` [Conjugate C33], the EC50 is 0.0589 nM on human KISS-receptor (setting [3]) and 0.912 nM at human KISS-receptor (setting [4]).
`CO[C@H]1O[C@H](COS(=O)(=O)O)[C@@H](O[C@@H]2O[C@@H](C(=O)O)[C@@H](O[C@H]3O[C@H](COS(=O)(=O)O)[C@@H](O[C@@H]4O[C@H](C(=O)O)[C@@H](O[C@H]5O[C@H](COS(=O)(=O)O)[C@@H](OCCOCCOCCOCCNC(=O)CCc6cn(CCCCC(=O)N[C@H](Cc7ccc(O)cc7)C(=O)N7C[C@H](O)C[C@H]7C(=O)N[C@@H](CC(N)=O)C(=O)N[C@H](C(=O)N[C@@H](Cc7ccccc7)C(=O)NNC(=O)N[C@@H](CC(C)C)C(=O)N[C@@H](CCCNC(=N)N)C(=O)N[C@@H](Cc7c[nH]c8ccccc78)C(N)=O)[C@@H](C)O)nn6)[C@H](OC)[C@H]5OC)[C@H](OC)[C@H]4OC)[C@H](OS(=O)(=O)O)[C@H]3OS(=O)(=O)O)[C@H](OC)[C@H]2OC)[C@H](OC)[C@H]1OS(=O)(=O)O` [Conjugate C36]: the EC50 at human KISS-receptor (setting [3]) is 0.0126 nM; on human KISS-receptor (setting [4]) it was 0.0912 nM.
In the case of `CO[C@H]1O[C@H](COS(=O)(=O)O)[C@@H](O[C@@H]2O[C@@H](C(=O)O)[C@@H](O[C@H]3O[C@H](COS(=O)(=O)O)[C@@H](O[C@@H]4O[C@H](C(=O)O)[C@@H](O[C@H]5O[C@H](COS(=O)(=O)O)[C@@H](OCCOCCOCCOCCNC(=O)CCc6cn(CCCCC(=O)N[C@H](Cc7ccc(O)cc7)C(=O)N7C[C@H](O)C[C@H]7C(=O)N[C@@H](CC(N)=O)C(=O)N[C@H](C(=O)N[C@@H](Cc7ccccc7)C(=O)NNC(=O)N[C@@H](CC(C)C)C(=O)N[C@@H](CCCNC(=N)N)C(=O)N[C@@H](Cc7c[nH]c8ccccc78)C(N)=O)[C@@H](C)O)nn6)[C@H](OC)[C@H]5OC)[C@H](OC)[C@H]4OC)[C@H](OS(=O)(=O)O)[C@H]3OS(=O)(=O)O)[C@H](OC)[C@H]2OC)[C@H](OS(=O)(=O)O)[C@H]1OS(=O)(=O)O` [Conjugate C37], the values for the EC50 at human KISS-receptor (setting [3]) and at human KISS-receptor (setting [4]) were 0.0126 nM and 1.15 nM, respectively.
On to `CO[C@H]1O[C@H](COS(=O)(=O)O)[C@@H](O[C@@H]2O[C@@H](C(=O)O)[C@@H](O[C@H]3O[C@H](COS(=O)(=O)O)[C@@H](O[C@@H]4O[C@H](C(=O)O)[C@@H](O[C@H]5O[C@H](COS(=O)(=O)O)[C@@H](OCCOCCOCCOCCNC(=O)CCc6cn(CCCCC(=O)N[C@H](Cc7ccc(O)cc7)C(=O)N7C[C@H](O)C[C@H]7C(=O)N[C@@H](CC(N)=O)C(=O)N[C@H](C(=O)N[C@@H](Cc7ccccc7)C(=O)NCC(=O)N[C@@H](CC(C)C)C(=O)N[C@@H](CCCNC(=N)N)C(=O)N[C@@H](Cc7c[nH]c8ccccc78)C(N)=O)[C@@H](C)O)nn6)[C@H](OC)[C@H]5OC)[C@H](OC)[C@H]4OC)[C@H](OS(=O)(=O)O)[C@H]3OS(=O)(=O)O)[C@H](OC)[C@H]2OC)[C@H](OC)[C@H]1OS(=O)(=O)O` [Conjugate C38], for which the EC50 at human KISS-receptor (setting [3]) is 0.0427 nM; at human KISS-receptor (setting [4]), 0.316 nM.
`CO[C@H]1O[C@H](COS(=O)(=O)O)[C@@H](O[C@@H]2O[C@@H](C(=O)O)[C@@H](O[C@H]3O[C@H](COS(=O)(=O)O)[C@@H](O[C@@H]4O[C@H](C(=O)O)[C@@H](O[C@H]5O[C@H](COS(=O)(=O)O)[C@@H](OCCOCCOCCOCCNC(=O)CCc6cn(CCCCC(=O)N[C@H](Cc7ccc(O)cc7)C(=O)N7C[C@H](O)C[C@H]7C(=O)N[C@@H](CC(N)=O)C(=O)N[C@H](C(=O)N[C@@H](Cc7ccccc7)C(=O)NCC(=O)N[C@@H](CC(C)C)C(=O)N[C@@H](CCCNC(=N)N)C(=O)N[C@@H](Cc7c[nH]c8ccccc78)C(N)=O)[C@@H](C)O)nn6)[C@H](OC)[C@H]5OC)[C@H](OC)[C@H]4OC)[C@H](OS(=O)(=O)O)[C@H]3OS(=O)(=O)O)[C@H](OC)[C@H]2OC)[C@H](OS(=O)(=O)O)[C@H]1OS(=O)(=O)O` [Conjugate C39]: the EC50 was 0.0646 nM at human KISS-receptor (setting [3]) and 2.69 nM at human KISS-receptor (setting [4]).
Regarding `CO[C@H]1O[C@H](COS(=O)(=O)O)[C@@H](O[C@@H]2O[C@@H](C(=O)O)[C@@H](O[C@H]3O[C@H](COS(=O)(=O)O)[C@@H](O[C@@H]4O[C@H](C(=O)O)[C@@H](O[C@H]5O[C@H](COS(=O)(=O)O)[C@@H](OCCOCCOCCOCCNC(=O)CCc6cn(CCOCCOCCOCCOCCC(=O)N[C@@H](Cc7ccc(O)cc7)C(=O)N7C[C@H](O)C[C@H]7C(=O)N[C@@H](CC(N)=O)C(=O)N[C@H](C(=O)N[C@@H](Cc7ccccc7)C(=O)NNC(=O)N[C@@H](CC(C)C)C(=O)N[C@@H](CCCNC(=N)N)C(=O)N[C@@H](Cc7c[nH]c8ccccc78)C(N)=O)[C@@H](C)O)nn6)[C@H](OC)[C@H]5OC)[C@H](OC)[C@H]4OC)[C@H](OS(=O)(=O)O)[C@H]3OS(=O)(=O)O)[C@H](OC)[C@H]2OC)[C@H](OC)[C@H]1OS(=O)(=O)O` [Conjugate C40], the EC50 was 0.347 nM on human KISS-receptor (pEC50, absence of human serum) and 1.66 nM on human KISS-receptor (setting [2]).

The values are drawn from patent publication US9127038B2, “Kisspeptide-pentasaccharide conjugates” (Merck Sharp & Dohme Corp., priority 2011, dated 2015).
